Source: patent US4000261A, “5-Epi-4,6-di-O-(aminoglycosyl)-2-deoxystreptamines, methods for their manufacture and intermediates useful therein, methods for their use as antibacterial agents and compositions useful therefor” (priority 1975, dated 1976)
Values after ≈ are worked out from the molar mass of the structure shown. Like-named read-outs stand apart in the source and are kept apart here.

What was measured:
Assay type in all cases: cell-based
[1] = test system: gram-positive and gram-negative bacteria; assay: antibacterial spectrum and relative activity in vitro; details: for antibacterial spectrum in vitro: compared with gentamicin C1, C1a and C2
[2] = test system: gram positive bacteria (e.g. Staphylococcus aureus) and gram negative bacteria (e.g. Escherichia coli and Pseudomonas aeruginosa); assay: antibacterial activity determined by standard dilution tests; details: including bacteria resistant to the parent compounds
Bacillus subtilis 663 = assay: in vitro minimal inhibitory concentration (MIC), standard tube dilution method; details: strain 663, Mueller-Hinton broth
Excerpt: (§1) In Table 1, set forth below is shown the in vitro minimal inhibitory concentration (MIC) of gentamicin C2a against representative gram-positive and gram-negative bacteria. The results are derived using the standard tube dilution method in Mueller-Hinton broth.
(§2) In Table 2, set forth below is shown the in vitro minimal inhibitory concentration (MIC) of gentamicin C2b against representative gram-positive and gram-negative bacteria. The results are derived using the standard tube dilution method in Mueller-Hinton broth.

Escherichia coli = assay: as above
Excerpt: as §1, §2

Klebsiella pneumoniae = assay: as above
Excerpt: as §1, §2

Pseudomonas aeruginosa = assay: as above
Excerpt: as §1, §2

Salmonella typhi. B. = assay: as above; details: Salmonella enterica
Excerpt: as §1, §2

Staphylococcus aureus = assay: as above; details: Mueller-Hinton broth
Excerpt: as §1, §2

[3] = ATCC10536, strain ATCC 10536, Mueller-Hinton broth
[4] = strain JR66, gentamicin resistant, Mueller-Hinton broth
[5] = strain LA 290/R55, gentamicin resistant, Mueller-Hinton broth
[6] = strain 17, Mueller-Hinton broth, read-out: MIC
[7] = strain 20, Mueller-Hinton broth
[8] = strain 762, Mueller-Hinton broth
[9] = strain 3223, Mueller-Hinton broth
[10] = strain St 138, gentamicin resistant, Mueller-Hinton broth
[11] = strain Travers, gentamicin resistant, Mueller-Hinton broth

Row | Compound | MIC (Bacillus subtilis 663) | MIC (Escherichia coli; [3]) | MIC (Escherichia coli; [4]) | MIC (Escherichia coli; [5]) | MIC (Klebsiella pneumoniae; [6]) | MIC (Pseudomonas aeruginosa; [7]) | MIC (Pseudomonas aeruginosa; [8]) | MIC (Pseudomonas aeruginosa; [9]) | MIC (Pseudomonas aeruginosa; [10]) | MIC (Pseudomonas aeruginosa; [11]) | MIC (Salmonella typhi. B.) | MIC (Staphylococcus aureus; strain 59N) | MIC (Staphylococcus aureus; strain Ziegler) | antibacterial spectrum in vitro [1] | other results
1 | CCN[C@@H]1C[C@H](N)[C@@H](O[C@H]2OC(CN)=CC[C@H]2N)[C@@H](O)[C@H]1O[C@H]1OC[C@](C)(O)[C@H](NC)[C@H]1O [1-N-ethyl-5-episisomicin] | – | – | – | – | – | – | – | – | – | – | – | – | – | – | antibacterial activity / spectrum ([1]; general statement, some compared with parent antibiotics): enhanced antibacterial activity
2 | CN[C@@H]1[C@@H](O)[C@@H](O[C@@H]2[C@H](O)[C@H](O[C@H]3OC(CN)=CC[C@H]3N)[C@@H](N)C[C@H]2N)OC[C@@H]1O [5-epi-Antibiotic 66-40D] | – | – | – | – | – | – | – | – | – | – | – | – | – | – | antibacterial activity in standard dilution tests [2]: active against gram positive bacteria (e.g. Staphylococcus aureus) and gram negative bacteria (e.g. Escherichia coli and Pseudomonas aeruginosa)
3 | CN[C@@H]1[C@@H](O)[C@@H](O[C@@H]2[C@@H](O)[C@H](O[C@H]3O[C@H]([C@H](C)N)CC[C@H]3N)[C@@H](N)C[C@H]2N)OC[C@]1(C)O [gentamicin C2a] | 0.1 µg/mL (≈ 0.216 µM) | 0.3 µg/mL (≈ 0.647 µM) | 7.5 µg/mL (≈ 16.2 µM) | 17.5 µg/mL (≈ 37.8 µM) | 0.8 µg/mL (≈ 1.73 µM) | 3 µg/mL (≈ 6.47 µM) | 0.8 µg/mL (≈ 1.73 µM) | 0.3 µg/mL (≈ 0.647 µM) | > 25 µg/mL | > 25 µg/mL | 0.3 µg/mL (≈ 0.647 µM) | 0.3 µg/mL (≈ 0.647 µM) | 0.3 µg/mL (≈ 0.647 µM) | substantially the same antibacterial spectrum in vitro as do gentamicin C1, C1a and C2 | MIC (Klebsiella pneumoniae): 17.5 µg/mL (≈ 37.8 µM); MIC (Staphylococcus aureus; Staphylococcus aureus, strain 6538P, read-out: MIC): 0.3 µg/mL (≈ 0.647 µM); activity relative to the gentamicin C complex ([1]; as the free base, % of the activity of the gentamicin C complex): about 74%
4 | CNC[C@@H]1CC[C@@H](N)[C@@H](O[C@H]2[C@H](O)[C@@H](O[C@H]3OC[C@](C)(O)[C@H](NC)[C@H]3O)[C@H](N)C[C@@H]2N)O1 [gentamicin C2b] | < 0.05 µg/mL | 0.075 µg/mL (≈ 0.162 µM) | 7.5 µg/mL (≈ 16.2 µM) | > 25 µg/mL | 0.075 µg/mL (≈ 0.162 µM) | 0.3 µg/mL (≈ 0.647 µM) | 0.3 µg/mL (≈ 0.647 µM) | 0.075 µg/mL (≈ 0.162 µM) | 17.5 µg/mL (≈ 37.8 µM) | > 25 µg/mL | 0.3 µg/mL (≈ 0.647 µM) | 0.075 µg/mL (≈ 0.162 µM) | 0.075 µg/mL (≈ 0.162 µM) | substantially the same antibacterial spectrum in vitro as do gentamicin C1, C1a and C2 | MIC (Klebsiella pneumoniae; strain 3694, gentamicin resistant, Mueller-Hinton broth, read-out: MIC): 17.5 µg/mL (≈ 37.8 µM); MIC (Staphylococcus aureus; Staphylococcus aureus, strain wood, read-out: MIC): 0.075 µg/mL (≈ 0.162 µM)
